Data taken from US20220227776A1, “PRODRUGS OF 1'-S[…]-NUCLEOSIDE ANALOGUES FOR ANTIVIRAL TREATMENT” (Copycat Sciences Inc., priority 2020, published 2022).

What was measured:
[1] = Thermodynamic solubility at pH 7.4; format: physicochemical
Source text: (§1) As summarized in Table 8, these studies indicate that CAT002 is an efficient prodrug of GS-441524 that is well-suited for clinical development as an oral agent.

[2] = Phosphate buffer stability at 25° C.; format: physicochemical
Source text: as §1

Caco-2 = Caco-2 permeability AB/BA; format: in vitro ADME; conditions: for Caco-2 permeability AB: AB direction; for Caco-2 permeability BA: BA direction; for Caco-2 Efflux: BA/AB
[3] = Human intestinal S9 stability at 37° C.; format: in vitro ADME
Source text: Across all species tested, CAT002 was efficiently metabolized to the core nucleoside GS-441524 when administered orally, indicating efficient first-pass intestinal or hepatic metabolism. Rapid hydrolysis of CAT002 in human intestinal homogenates indicated intestinal metabolism as the primary mechanism of CAT002 hydrolysis.

[4] = Human plasma stability at 37° C.
[5] = Human hepatic microsomal stability (+/- mixed cofactors); format: in vitro ADME
[6] = Plasma pharmacokinetics of GS-441524 following oral administration of CAT002 in Sprague-Dawley rats; format: in vivo
Experimental: CAT002 (16 mg/kg; 10.8 mg/kg-equivalent of the parent nucleoside, GS-441524) was formulated in saline (1.60 mg/mL) and orally administered to fasted male rats (N=2). Whole blood samples were collected at the following timepoints (hours) in K2EDTA collection tubes: 0.25, 0.50, 1.00, 2.00, 4.00, 8.00, 24.0, 48.0.
(§2) Sample preparation. Plasma was isolated by protein precipitation in a 96-well plate at 0° C. An aliquot of 20 μL unknown sample, calibration standard, quality control and dilution quality control (if have), single blank, and double blank sample was added to the 96-well plate respectively. Each sample (except the double blank) was quenched with 100 μL of IS1 respectively (double blank sample was quenched with 100 μL of MeOH), and then the mixture was vortex-mixed for 10 min at 800 rpm and centrifuged for 15 min at 3220×g, 4° C. An aliquot of 60 μL supernatant was transferred to another clean 96-well plate and centrifuged for 5 min at 3220×g, 4° C., then the supernatant was directly injected for LC-MS/MS analysis.
LC-MS/MS analysis. Metabolites of interest (CAT002, GS-441524) were then quantified by LC-MS/MS (SCIEX LC-MS/MS-BZ Triple Quad 6500+, ACQUITY UPLC HSS T3 1.8 μm 2.1×50 mm Column; mobile phase A: 0.1% formic acid in water, mobile phase B: 0.1% formic acid in acetonitrile; flow rate: 0.65 mL/min.). Gradient conditions were as follows: 2% B over 0.2 minutes, 2-25% B from 0.2-1.2 minutes, 25-95% from 1.2-1.4 minutes, 95% from 1.4-2.1 minutes, 95-2% from 2.1-2.11 minutes, 2% from 2.11-2.2 minutes). The lower limit of quantification for both CAT002 and GS-441524 was 2.00 ng/mL. Data for both CAT002 and GS-441524 were fitted and analyzed by Phoenix NonWinLin 6.3 using noncompartmental model 200 (extravascular output). Data on directly administered oral GS-441524 were obtained from the NCATS OpenData Portal and are plotted alongside data generated from CAT002 for comparison (FIG. 1).

[7] = Plasma pharmacokinetics of GS-441524 following oral administration of CAT002 in cynomolgus macaques; format: in vivo
Experimental: CAT002 (7.8 mg/kg; 4.9 mg/kg-equivalent of the parent nucleoside, GS-441524) was formulated in saline (1.60 mg/mL) and orally administered to fasted male cynomolgus macaques (N=2). GS-441524 is in turn intracellularly converted to the bioactive ATP analogue, GS-443902. GS-443902 is known to have an antiviral activity and affinity for viral polymerase. See Gordon et al. JBC 2020; 295(20): 6785-6797; Tchesnokov et al. JBC 2020: 295(47):16156-16165; Yin et al. Science 2020: 368(6498): 1499-1504. Whole blood samples were collected at the following timepoints (hours) in K2EDTA collection tubes: 0.25, 0.50, 1.00, 2.00, 4.00, 8.00, 24.0, 48.0.
as §2
LC-MS/MS analysis. Metabolites of interest (CAT002, GS-441524) were then quantified by LC-MS/MS (SCIEX LC-MS/MS-BZ Triple Quad 6500+, ACQUITY UPLC HSS T3 1.8 μm 2.1×50 mm Column; mobile phase A: 0.1% formic acid in water, mobile phase B: 0.1% formic acid in acetonitrile; flow rate: 0.65 mL/min.). Gradient conditions were as follows: 2% B over 0.2 minutes, 2-25% B from 0.2-1.2 minutes, 25-95% from 1.2-1.4 minutes, 95% from 1.4-2.1 minutes, 95-2% from 2.1-2.11 minutes, 2% from 2.11-2.2 minutes). The lower limit of quantification for 1.00 ng/mL for CAT002 and 2.00 ng/mL for GS-441524. Data for both CAT002 and GS-441524 were fitted and analyzed by Phoenix NonWinLin 6.3 using noncompartmental model 200 (extravascular output). […]

[8] = Plasma pharmacokinetics of GS-441524 following oral administration of CAT002 in humans; format: in vivo
Experimental: CAT002 (HCl salt) was administered as excipient-less gelatin capsules to healthy participants (N=2) in the fasted state. Participant 1 (Subject 1) is a healthy person and Participant 2 (Subject 2) is a healthy person. Both Participants 1 and 2 were administered 5.4 mg/kg CAT002 (3 mg/kg-equivalent GS-441524). Whole blood samples were collected at the following timepoints (hours) in K2EDTA collection tubes: 0.5, 1, 3.6, 8, 24, 43. Plasma was isolated by centrifugation and samples were stored at −78° C. before analysis.
In-life PK of orally administered GS-441524. GS-441524 was administered as an excipient-less gelatin capsule (200 mg) to Participant 1 in the fasted state. Whole blood samples were collected at the following timepoints (hours) in K2EDTA collection tubes: 0.5, 1, 3.6, 8, 24, 43. Plasma was isolated by centrifugation and samples were stored at −78° C. before analysis. Sample preparation. An aliquot of 20 μL unknown sample, calibration standard, quality control and dilution quality control (if have), single blank, and double blank sample was added to the 96-well plate respectively. Each sample (except the double blank) was quenched with 100 μL of IS1 respectively (double blank sample was quenched with 100 μL of MeOH), and then the mixture was vortex-mixed for 10 min at 800 rpm and centrifuged for 15 min at 3220×g, 4° C. An aliquot of 60 μL supernatant was transferred to another clean 96-well plate and centrifuged for 5 min at 3220×g, 4° C., then the supernatant was directly injected for LC-MS/MS analysis.
LC-MS/MS analysis. Metabolites of interest (GS-441524) were then quantified by LC-MS/MS (SCIEX LC-MS/MS-BZ Triple Quad 6500+, ACQUITY UPLC HSS T3 1.8 μm 2.1×50 mm Column; mobile phase A: 0.1% formic acid in water, mobile phase B: 0.1% formic acid in acetonitrile; flow rate: 0.65 mL/min.). […] The lower limit of quantification was 1.00 ng/mL. Data for both CAT002 and GS-441524 were fitted and analyzed by Phoenix NonWinLin 6.3 using noncompartmental model 200 (extravascular output) (FIG. 3).

[9] = oral CAT002, analyte GS-441524 in plasma
[10] = oral CAT002 in aqueous solution

N#C[C@@]1(c2ccc3c(N)ncnn23)O[C@H](CO)[C@@H](O)[C@H]1O [GS-441524, reference compound]
Thermodynamic solubility at pH 7.4 [1]: 0.04 mg/mL | Phosphate buffer stability at 25° C., T1/2 ([2]; pH not specified): Stable | Caco-2 permeability AB (Caco-2): 0.17 cm/sec•10^6 | Caco-2 permeability BA (Caco-2): 2.1 cm/sec•10^6 | Caco-2 Efflux (Caco-2): 12.4 | Human intestinal S9 stability at 37° C. [3]: Stable | Human plasma stability at 37° C. ([4]; plasma type not specified): Stable

((2R,3S,4R,5R)-5-(4-aminopyrrolo[2,1-f][1,2,4]triazin-7-yl)-5-cyano-3,4-dihydroxytetrahydrofuran-2-yl)methyl D-valinate [CAT002]
aqueous solubility at neutral pH, fold greater than GS-441524 ([1]; neutral pH, relative to GS-441524): 87 fold | Thermodynamic solubility at pH 7.4 [1]: 3.4 mg/mL | Phosphate buffer stability at 25° C., T1/2 ([2]; pH 3.0): pH 3.0: Stable | Phosphate buffer stability at 25° C., T1/2 ([2]; pH 7.4): pH 7.4: 30 hours | Caco-2 permeability AB (Caco-2): 0.55 cm/sec•10^6 | Caco-2 permeability BA (Caco-2): 0.45 cm/sec•10^6 | Caco-2 Efflux (Caco-2): 0.8 | Human intestinal S9 stability at 37° C. [3]: 19.5 min | Human hepatic microsomal stability, T1/2 [5]: 67 minutes (− cofactors) | plasma levels of CAT002 (for determining its half-life) ([6]; oral CAT002, analyte CAT002): either too low or below the limit of quantification | half-life of GS-441524 derived from CAT002 [6, 9]: 3 h | plasma exposure to GS-441524 with respect to Cmax, fold higher than previously reported for equivalent doses of oral GS-441524 in organic solution [6, 10]: approximately 6 fold | plasma levels of CAT002 (for determining its half-life) ([7]; oral CAT002, analyte CAT002): either too low or below the limit of quantification | half-life of GS-441524 derived from CAT002 [7, 9]: 8 h | plasma exposure to GS-441524 with respect to Cmax, fold higher than previously reported for equivalent doses of oral GS-441524 in organic solution [7, 10]: approximately 6 fold | plasma levels of CAT002 (for determining its half-life) ([8]; oral CAT002, analyte CAT002): either too low or below the limit of quantification | half-life of GS-441524 derived from CAT002 [8, 9]: 7.3 h | plasma exposure of the core nucleoside with respect to Cmax, fold higher than oral solution of GS-441524 at an equivalent per-molar dose ([8]; oral CAT002 powder-in-capsule formulation): approximately 4 fold | Human plasma stability at 37° C. ([4]; EDTA plasma): EDTA plasma: 195 minutes | Human plasma stability at 37° C. ([4]; Heparin plasma): Heparin plasma: >289.1 minutes
